Test results taken from patent publication US20260098054A1, “COMPOSITIONS AND METHODS FOR CONSTRUCTING CONJUGATES” (priority 2022, published 2026).
Non-standard residues stand in square brackets, D forms with d. Pen = CC(C)(S)[C@H](N)C(=O)O

What was measured:
[1] = system: U87-MG cells; experiment: In vitro cytotoxicity assay (CCK-8) in U87-MG cells; settings: U87-MG (high αvβ3 integrin), 48 h incubation, fold of free DM1 activity
Protocol: (§1) Cells were plated in 96-well microplates at a density of 5×10^4 cells/well for 24 h for attachment, 90 μl of DMEM with 10% FBS and 100 U/mL P/Swas added to each well. PDCs 1-6 were first dissolved in DMSO respectively, at a concentration of 10 mM, followed by serial dilution in culture medium to achieve different concentrations as specified. For U87-MG cells, the concentration of compounds administered ranged from 1.37 to 27000 nM. While for HEK-293T cells, the concentration of compounds administered ranged from 0.03 to 1000 nM. The cells treated with the compounds were then incubated for 48 h. 10 μl of CCK-8 solution was then added to each well and incubated for 30 min. Absorbance was acquired at 450 nm using a spectrophotometer (Synergy HTX, Biotek). Three experiments were performed separately in triplicates and the data was processed using the GraphPad Prism (GraphPad Software, La Jolla, CA).
(§2) Next, the biological activities of these conjugates were evaluated.
Then, the in vitro antitumor efficacy of PDCs 1-6 was examined by CCK-8 assay (FIG. 5B). The IC50 of free DM1 and its conjugates were compared internally within the same cell line, to determine the potency of the six compounds.

[2] = molecular target: αvβ3 integrin (Homo sapiens, UniProt P05106+P06756); settings: Kapp, et al., Sci. Rep. 2017; cited from earlier work
Chain of αvβ3 integrin (P06756 31-1048): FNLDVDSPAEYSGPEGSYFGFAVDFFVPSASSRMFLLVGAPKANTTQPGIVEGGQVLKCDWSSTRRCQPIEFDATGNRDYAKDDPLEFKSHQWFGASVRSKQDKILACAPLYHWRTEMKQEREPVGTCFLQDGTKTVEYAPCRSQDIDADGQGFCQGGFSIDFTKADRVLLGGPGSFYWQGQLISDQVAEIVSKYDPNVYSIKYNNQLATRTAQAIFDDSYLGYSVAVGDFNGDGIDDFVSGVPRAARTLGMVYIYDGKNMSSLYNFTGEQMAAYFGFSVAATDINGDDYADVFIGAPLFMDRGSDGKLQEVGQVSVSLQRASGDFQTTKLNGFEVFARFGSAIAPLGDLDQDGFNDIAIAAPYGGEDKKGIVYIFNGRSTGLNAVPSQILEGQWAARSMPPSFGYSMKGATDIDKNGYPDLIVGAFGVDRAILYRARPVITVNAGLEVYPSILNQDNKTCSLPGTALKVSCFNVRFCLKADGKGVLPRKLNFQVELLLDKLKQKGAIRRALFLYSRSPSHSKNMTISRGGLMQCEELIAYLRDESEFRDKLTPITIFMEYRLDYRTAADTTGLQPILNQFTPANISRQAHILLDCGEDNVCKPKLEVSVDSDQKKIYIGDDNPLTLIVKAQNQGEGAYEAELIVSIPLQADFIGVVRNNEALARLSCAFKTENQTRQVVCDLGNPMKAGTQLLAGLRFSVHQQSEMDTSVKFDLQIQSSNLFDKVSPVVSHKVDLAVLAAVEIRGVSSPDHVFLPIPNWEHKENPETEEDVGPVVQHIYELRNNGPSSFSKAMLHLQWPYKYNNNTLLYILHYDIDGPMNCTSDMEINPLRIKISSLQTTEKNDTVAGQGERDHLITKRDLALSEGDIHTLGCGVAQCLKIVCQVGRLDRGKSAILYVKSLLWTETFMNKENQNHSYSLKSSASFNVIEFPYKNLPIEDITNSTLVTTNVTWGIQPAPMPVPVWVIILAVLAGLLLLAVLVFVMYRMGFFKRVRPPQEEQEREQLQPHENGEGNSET
Chain of αvβ3 integrin (P05106 27-788): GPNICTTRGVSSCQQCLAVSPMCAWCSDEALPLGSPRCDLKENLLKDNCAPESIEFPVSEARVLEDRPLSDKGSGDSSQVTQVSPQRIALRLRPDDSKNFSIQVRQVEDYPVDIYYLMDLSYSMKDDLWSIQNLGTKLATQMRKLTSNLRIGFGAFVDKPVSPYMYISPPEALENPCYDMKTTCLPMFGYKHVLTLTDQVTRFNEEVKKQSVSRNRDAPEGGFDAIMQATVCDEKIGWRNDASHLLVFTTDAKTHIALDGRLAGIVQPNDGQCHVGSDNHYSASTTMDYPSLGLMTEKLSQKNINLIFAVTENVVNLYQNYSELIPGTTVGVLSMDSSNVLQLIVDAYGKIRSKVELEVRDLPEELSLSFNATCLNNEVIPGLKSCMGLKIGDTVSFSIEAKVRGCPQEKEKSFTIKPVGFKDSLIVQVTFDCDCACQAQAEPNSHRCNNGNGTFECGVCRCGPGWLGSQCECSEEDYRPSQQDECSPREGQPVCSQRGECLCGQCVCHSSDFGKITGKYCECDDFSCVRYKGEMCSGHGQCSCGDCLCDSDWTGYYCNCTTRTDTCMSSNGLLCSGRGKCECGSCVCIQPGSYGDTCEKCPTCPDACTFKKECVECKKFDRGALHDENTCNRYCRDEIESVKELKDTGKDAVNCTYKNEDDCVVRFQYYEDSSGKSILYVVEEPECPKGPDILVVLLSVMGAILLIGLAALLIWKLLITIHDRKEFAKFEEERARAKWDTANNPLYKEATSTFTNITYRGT

[3] = system: HEK-293T cells; experiment: In vitro cytotoxicity assay (CCK-8) in HEK-293T cells; settings: for cytotoxicity in words (ranking among the six compounds): HEK-293T, CCK-8, PDCs 1-6
Protocol: as §1, §2
The peptide-drug conjugates were tested on the negative control cell line.

[4] = Stability test of conjugates (checked by LCMS); assay type: physicochemical; settings: 5% ACN in H2O or 5% ACN in PBS pH 7.4, 0.5 mM, room temperature or 37° C., LCMS after 24 h and 48 h
Protocol: FIGS. 5A-5C are line graphs of stability test and biological evaluations of PDC 1-6. […] The compound was checked by LCMS after 24 h and 48 h.

[5] = molecular target: integrin αvβ3 (UniProt P06756 31-1048; P05106 27-788); experiment: cell-based or functional assay
Chain of integrin αvβ3 (P06756 31-1048, chain 1 of 2): as the sequence (P06756 31-1048) above
Chain of integrin αvβ3 (P05106 27-788, chain 2 of 2): as the sequence (P05106 27-788) above

COc1cc2cc(c1Cl)N(C)C(=O)C[C@H](OC(=O)[C@H](C)N(C)C(=O)CCSc1c3ccccc3cn1CCCC[C@@H]1NC(=O)[C@@H](Cc3ccccc3)NC(=O)[C@H](CCC(=O)O)NC(=O)CNC(=O)[C@H](CCCNC(=N)N)NC1=O)[C@]1(C)O[C@H]1[C@H](C)[C@@H]1C[C@@](O)(NC(=O)O1)[C@H](OC)/C=C/C=C(\C)C2 [PDC-5]
cytotoxicity compared to free DM1 (IC50 compared within the same cell line) [1]: 0.49 fold

COc1cc2cc(c1Cl)N(C)C(=O)C[C@H](OC(=O)[C@H](C)N(C)C(=O)CCSc1c3ccccc3cn1CCCC[C@@H]1NC(=O)[C@@H](Cc3ccccc3)NC(=O)[C@H](CC(=O)O)NC(=O)CNC(=O)[C@H](CCCNC(=N)N)NC1=O)[C@]1(C)O[C@H]1[C@H](C)[C@@H]1C[C@@](O)(NC(=O)O1)[C@H](OC)/C=C/C=C(\C)C2 [PDC-1, OPA-c [RGDfK]-DM1]
cytotoxicity compared to free DM1 (IC50 compared within the same cell line) [1]: 0.85 fold

c [c [RGDfV]]
increase of binding affinity compared to the linear RGD tripeptide [2]: 58 fold

COc1cc2cc(c1Cl)N(C)C(=O)C[C@H](OC(=O)[C@H](C)N(C)C(=O)CCSSCCn1cc3ccccc3c1SC(C)(C)[C@@H]1NC(=O)[C@@H](Cc3ccccc3)NC(=O)[C@H](CC(=O)O)NC(=O)CNC(=O)[C@H](CCCNC(=N)N)NC1=O)[C@]1(C)O[C@H]1[C@H](C)[C@@H]1C[C@@](O)(NC(=O)O1)[C@H](OC)/C=C/C=C(\C)C2 [PDC-3]
cytotoxicity as fold of the activity of DM1 ([3]; HEK-293T (low αvβ3 integrin, negative control), 48 h incubation, CCK-8): 0.31 fold
cytotoxicity in words (ranking among the six compounds) [3]: relatively better activity among the six compounds
cytotoxicity compared to free DM1 (IC50 compared within the same cell line) [1]: 5.95 fold
stability compared to PDC-1 (FIG. 5A) [4]: improved stability

COc1cc2cc(c1Cl)N(C)C(=O)C[C@H](OC(=O)[C@H](C)N(C)C(=O)CCSSCCn1cc3ccccc3c1SC(C)(C)[C@@H]1NC(=O)[C@@H](Cc3ccccc3)NC(=O)[C@H](CCC(=O)O)NC(=O)CNC(=O)[C@H](CCCNC(=N)N)NC1=O)[C@]1(C)O[C@H]1[C@H](C)[C@@H]1C[C@@](O)(NC(=O)O1)[C@H](OC)/C=C/C=C(\C)C2 [PDC-6]
cytotoxicity in words (ranking among the six compounds) [3]: relatively better activity among the six compounds
cytotoxicity compared to free DM1 (IC50 compared within the same cell line) [1]: 0.48 fold

c [c [RGDfK]]
increase of binding affinity compared to the linear RGD tripeptide [2]: 39 fold

cyclo(RGD[dF]K(Pen)) (not fully specified) [PDC-4]
cytotoxicity (CCK-8 assay) in U87-MG cells, fold against free DM1 [5]: 1.29 fold
cytotoxicity (CCK-8 assay) in the αvβ3-negative cell line HEK-293T, fold of the activity of DM1 [5]: 0.16 fold
